# Reference: the kinase profiling compilation of Christmann-Franck et al. (2016)
# Key:
# Assay in all cases: radiometric filter-binding kinase assay, Kinase HotSpot
# Conditions in all cases: compound 0.5 µM; ATP 10 µM
# TSSK1B (human) = TSSK1B (human) (UniProt Q9BXA7)
# DYRK2 (human) = DYRK2 (human) (UniProt Q92630)
# CSNK1G2 (human) = CSNK1G2 (human) (UniProt P78368)
# MAPK12 (human) = MAPK12 (human) (UniProt P53778)
# WEE1 (human) = WEE1 (human) (UniProt P30291)
# PDPK1 (human) = PDPK1 (human) (UniProt O15530)
# MELK (human) = MELK (human) (UniProt Q14680)
# RPS6KA1 KD1 KD2 (human) = RPS6KA1 KD1 KD2 (human) (UniProt Q15418)
# MAPK14 (human) = MAPK14 (human) (UniProt Q16539)
# MAPK8 (human) = MAPK8 (human) (UniProt P45983)
# PTK2 (human) = PTK2 (human) (UniProt Q05397)
# PAK4 (human) = PAK4 (human) (UniProt O96013)
# WNK2 (human) = WNK2 (human) (UniProt Q9Y3S1)
# NEK2 (human) = NEK2 (human) (UniProt P51955)
# GRK5 (human) = GRK5 (human) (UniProt P34947)
# YES1 (human) = YES1 (human) (UniProt P07947)
# TAOK3 (human) = TAOK3 (human) (UniProt Q9H2K8)
# MAPK10 (human) = MAPK10 (human) (UniProt P53779)
# NLK (human) = NLK (human) (UniProt Q9UBE8)
# TGFBR1 (human) = TGFBR1 (human) (UniProt P36897)
# PRKCZ (human) = PRKCZ (human) (UniProt Q05513)
# LTK (human) = LTK (human) (UniProt P29376)
# TEK (human) = TEK (human) (UniProt Q02763)
# RPS6KB2 (human) = RPS6KB2 (human) (UniProt Q9UBS0)
# CSNK2A1 (human) = CSNK2A1 (human) (UniProt P68400)
# SRPK2 (human) = SRPK2 (human) (UniProt P78362)
# MST1R (human) = MST1R (human) (UniProt Q04912)
# CAMKK1 (human) = CAMKK1 (human) (UniProt Q8N5S9)
# SGK2 (human) = SGK2 (human) (UniProt Q9HBY8)
# HCK (human) = HCK (human) (UniProt P08631)
# TYRO3 (human) = TYRO3 (human) (UniProt Q06418)
# SRMS (human) = SRMS (human) (UniProt Q9H3Y6)
# PRKCB2 (human) = PRKCB2 (human) (UniProt P05771)
# CAMK4 (human) = CAMK4 (human) (UniProt Q16566)
# LRRK2 (human) = LRRK2 (human) (UniProt Q5S007)
# MAP3K9 (human) = MAP3K9 (human) (UniProt P80192)
# NEK11 (human) = NEK11 (human) (UniProt Q8NG66)
# FGFR2 (human) = FGFR2 (human) (UniProt P21802)
# PKN1 (human) = PKN1 (human) (UniProt Q16512)
# SIK2 (human) = SIK2 (human) (UniProt Q9H0K1)
# CDK4 CCND1 (human) = CDK4 CCND1 (human) (UniProt P24385+P11802)
# CAMK1D (human) = CAMK1D (human) (UniProt Q8IU85)
# NLK (human), sequence (Q9UBE8 whole entry, looked up): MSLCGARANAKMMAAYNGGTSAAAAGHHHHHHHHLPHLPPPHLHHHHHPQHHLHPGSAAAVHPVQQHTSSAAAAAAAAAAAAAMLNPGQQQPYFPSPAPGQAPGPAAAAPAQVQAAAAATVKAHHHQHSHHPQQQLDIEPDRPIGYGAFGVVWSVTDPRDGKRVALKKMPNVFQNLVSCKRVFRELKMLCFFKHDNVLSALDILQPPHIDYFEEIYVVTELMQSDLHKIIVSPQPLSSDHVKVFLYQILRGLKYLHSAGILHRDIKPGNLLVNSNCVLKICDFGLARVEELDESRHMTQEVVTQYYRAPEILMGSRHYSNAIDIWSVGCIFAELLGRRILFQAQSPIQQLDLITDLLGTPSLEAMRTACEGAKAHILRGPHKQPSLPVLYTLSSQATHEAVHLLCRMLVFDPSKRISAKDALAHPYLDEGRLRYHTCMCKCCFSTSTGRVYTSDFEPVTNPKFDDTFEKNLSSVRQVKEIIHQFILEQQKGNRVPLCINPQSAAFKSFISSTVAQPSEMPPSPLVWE
# TSSK1B (human), sequence (Q9BXA7 whole entry, looked up): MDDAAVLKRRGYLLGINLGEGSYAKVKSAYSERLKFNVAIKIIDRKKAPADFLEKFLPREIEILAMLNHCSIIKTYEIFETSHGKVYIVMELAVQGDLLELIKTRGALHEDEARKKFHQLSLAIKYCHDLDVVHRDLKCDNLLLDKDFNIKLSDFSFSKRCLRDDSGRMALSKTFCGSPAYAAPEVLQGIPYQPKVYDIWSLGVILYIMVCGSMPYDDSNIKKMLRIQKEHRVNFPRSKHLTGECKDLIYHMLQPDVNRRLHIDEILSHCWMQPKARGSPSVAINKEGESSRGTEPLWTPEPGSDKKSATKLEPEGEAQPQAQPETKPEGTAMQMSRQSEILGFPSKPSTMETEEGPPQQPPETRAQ
# NEK11 (human), sequence (Q8NG66 whole entry, looked up): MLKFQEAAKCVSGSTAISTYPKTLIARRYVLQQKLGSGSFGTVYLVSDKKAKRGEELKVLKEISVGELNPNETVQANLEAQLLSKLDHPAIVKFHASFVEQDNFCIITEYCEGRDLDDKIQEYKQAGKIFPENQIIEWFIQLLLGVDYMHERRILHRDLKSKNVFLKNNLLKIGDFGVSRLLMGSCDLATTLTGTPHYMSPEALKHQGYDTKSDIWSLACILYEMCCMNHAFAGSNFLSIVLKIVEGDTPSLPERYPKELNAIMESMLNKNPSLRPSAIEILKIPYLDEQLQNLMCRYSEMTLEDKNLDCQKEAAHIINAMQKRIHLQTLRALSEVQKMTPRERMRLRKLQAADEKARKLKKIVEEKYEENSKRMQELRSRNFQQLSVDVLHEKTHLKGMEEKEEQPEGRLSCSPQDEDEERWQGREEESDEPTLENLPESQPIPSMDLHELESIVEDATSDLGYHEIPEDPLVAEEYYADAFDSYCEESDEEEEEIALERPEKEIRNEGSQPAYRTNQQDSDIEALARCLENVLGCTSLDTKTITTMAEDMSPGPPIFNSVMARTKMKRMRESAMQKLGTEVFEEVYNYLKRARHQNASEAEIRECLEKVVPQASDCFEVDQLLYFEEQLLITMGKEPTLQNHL
# LTK (human), sequence (P29376 whole entry, looked up): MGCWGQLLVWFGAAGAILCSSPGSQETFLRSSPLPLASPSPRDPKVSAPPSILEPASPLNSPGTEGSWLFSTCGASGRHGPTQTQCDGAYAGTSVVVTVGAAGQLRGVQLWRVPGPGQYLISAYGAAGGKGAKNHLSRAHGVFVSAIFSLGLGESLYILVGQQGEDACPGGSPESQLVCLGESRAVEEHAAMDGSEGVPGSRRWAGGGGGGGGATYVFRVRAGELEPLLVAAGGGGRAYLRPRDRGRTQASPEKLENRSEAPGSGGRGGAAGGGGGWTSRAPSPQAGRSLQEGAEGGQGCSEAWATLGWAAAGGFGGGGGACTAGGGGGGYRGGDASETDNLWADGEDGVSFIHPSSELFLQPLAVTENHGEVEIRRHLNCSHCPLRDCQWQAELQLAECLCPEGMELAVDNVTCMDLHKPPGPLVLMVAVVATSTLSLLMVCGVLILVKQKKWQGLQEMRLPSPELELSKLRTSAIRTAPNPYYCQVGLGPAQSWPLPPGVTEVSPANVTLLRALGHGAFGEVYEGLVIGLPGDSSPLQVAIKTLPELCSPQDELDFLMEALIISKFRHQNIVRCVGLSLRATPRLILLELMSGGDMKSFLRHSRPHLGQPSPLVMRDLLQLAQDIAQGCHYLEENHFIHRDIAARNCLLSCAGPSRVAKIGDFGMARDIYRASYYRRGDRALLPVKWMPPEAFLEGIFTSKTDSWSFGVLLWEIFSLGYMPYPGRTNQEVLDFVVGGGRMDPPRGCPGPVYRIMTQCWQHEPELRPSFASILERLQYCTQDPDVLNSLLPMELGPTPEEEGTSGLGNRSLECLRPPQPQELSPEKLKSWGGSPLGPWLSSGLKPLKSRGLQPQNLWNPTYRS
# MAP3K9 (human), sequence (P80192 whole entry, looked up): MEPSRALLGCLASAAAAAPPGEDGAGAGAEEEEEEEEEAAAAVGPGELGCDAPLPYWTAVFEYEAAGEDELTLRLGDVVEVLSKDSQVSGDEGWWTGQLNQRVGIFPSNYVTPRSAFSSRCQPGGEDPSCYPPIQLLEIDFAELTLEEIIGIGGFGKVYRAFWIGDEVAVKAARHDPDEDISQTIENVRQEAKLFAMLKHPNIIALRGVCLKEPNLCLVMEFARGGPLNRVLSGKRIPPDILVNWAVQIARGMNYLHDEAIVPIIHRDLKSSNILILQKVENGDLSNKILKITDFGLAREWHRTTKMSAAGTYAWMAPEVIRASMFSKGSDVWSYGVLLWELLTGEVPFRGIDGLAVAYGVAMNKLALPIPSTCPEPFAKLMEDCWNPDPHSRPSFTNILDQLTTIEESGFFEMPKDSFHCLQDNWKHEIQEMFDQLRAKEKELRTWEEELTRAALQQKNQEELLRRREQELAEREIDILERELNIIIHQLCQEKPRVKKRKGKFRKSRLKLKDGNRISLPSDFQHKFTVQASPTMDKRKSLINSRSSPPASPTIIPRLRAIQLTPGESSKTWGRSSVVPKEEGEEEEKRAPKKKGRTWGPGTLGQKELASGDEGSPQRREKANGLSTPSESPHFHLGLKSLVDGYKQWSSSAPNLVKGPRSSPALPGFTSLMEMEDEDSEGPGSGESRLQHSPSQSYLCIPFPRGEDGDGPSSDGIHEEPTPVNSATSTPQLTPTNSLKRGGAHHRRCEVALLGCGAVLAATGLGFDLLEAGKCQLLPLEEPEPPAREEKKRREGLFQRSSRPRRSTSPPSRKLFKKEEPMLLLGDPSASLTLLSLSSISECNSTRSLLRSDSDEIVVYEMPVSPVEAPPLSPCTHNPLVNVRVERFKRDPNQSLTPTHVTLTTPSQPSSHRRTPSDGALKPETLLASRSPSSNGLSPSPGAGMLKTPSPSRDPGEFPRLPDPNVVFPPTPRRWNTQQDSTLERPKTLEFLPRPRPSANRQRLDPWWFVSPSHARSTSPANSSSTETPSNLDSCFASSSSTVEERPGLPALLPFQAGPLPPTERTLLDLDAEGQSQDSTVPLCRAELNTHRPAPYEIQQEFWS
# MAPK12 (human), sequence (P53778 whole entry, looked up): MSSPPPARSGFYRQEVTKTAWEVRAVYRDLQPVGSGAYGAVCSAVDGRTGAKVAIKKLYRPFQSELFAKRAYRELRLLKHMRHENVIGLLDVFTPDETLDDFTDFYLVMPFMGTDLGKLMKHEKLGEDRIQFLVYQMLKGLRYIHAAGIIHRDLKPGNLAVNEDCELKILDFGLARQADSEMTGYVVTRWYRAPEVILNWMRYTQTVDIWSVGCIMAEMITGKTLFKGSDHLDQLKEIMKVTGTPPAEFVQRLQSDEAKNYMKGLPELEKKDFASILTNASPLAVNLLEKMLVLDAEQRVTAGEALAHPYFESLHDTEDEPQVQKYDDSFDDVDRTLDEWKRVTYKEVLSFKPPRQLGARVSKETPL
# MAPK10 (human), sequence (P53779 whole entry, looked up): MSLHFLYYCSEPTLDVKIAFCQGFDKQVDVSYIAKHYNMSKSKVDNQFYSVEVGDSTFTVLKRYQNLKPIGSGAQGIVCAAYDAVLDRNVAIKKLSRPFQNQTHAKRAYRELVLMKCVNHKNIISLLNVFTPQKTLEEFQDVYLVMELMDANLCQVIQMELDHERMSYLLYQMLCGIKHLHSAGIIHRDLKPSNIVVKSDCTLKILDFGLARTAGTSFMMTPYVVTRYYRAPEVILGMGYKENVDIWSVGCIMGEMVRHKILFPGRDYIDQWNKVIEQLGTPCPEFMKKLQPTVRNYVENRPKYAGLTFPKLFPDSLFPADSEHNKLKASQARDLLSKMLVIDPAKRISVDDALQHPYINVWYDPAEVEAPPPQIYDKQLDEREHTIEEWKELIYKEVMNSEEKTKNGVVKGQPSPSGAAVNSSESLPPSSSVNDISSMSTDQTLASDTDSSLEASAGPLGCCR
# HCK (human), sequence (P08631 whole entry, looked up): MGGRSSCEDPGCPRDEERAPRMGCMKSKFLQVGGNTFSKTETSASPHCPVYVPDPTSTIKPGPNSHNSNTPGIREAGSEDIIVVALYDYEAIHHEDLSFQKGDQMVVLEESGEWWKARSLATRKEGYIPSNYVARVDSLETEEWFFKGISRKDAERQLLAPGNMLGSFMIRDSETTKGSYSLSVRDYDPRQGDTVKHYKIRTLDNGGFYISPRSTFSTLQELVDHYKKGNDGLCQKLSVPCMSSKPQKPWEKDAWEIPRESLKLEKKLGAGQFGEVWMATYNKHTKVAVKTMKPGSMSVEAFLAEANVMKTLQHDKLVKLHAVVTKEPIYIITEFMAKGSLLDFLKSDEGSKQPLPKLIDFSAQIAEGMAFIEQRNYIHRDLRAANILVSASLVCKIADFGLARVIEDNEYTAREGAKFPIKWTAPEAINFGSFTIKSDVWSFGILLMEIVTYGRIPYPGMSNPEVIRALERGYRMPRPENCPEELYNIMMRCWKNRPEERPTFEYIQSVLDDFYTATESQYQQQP
smiles,measurement,setting,value
O=C1Cc2c([nH]c3ccc([N+](=O)[O-])cc23)-c2ccccc2N1,residual activity,TSSK1B (human),74.7%
same,residual activity,DYRK2 (human),72%
same,residual activity,CSNK1G2 (human),91.7%
same,residual activity,MAPK12 (human),112%
same,residual activity,WEE1 (human),98.2%
same,residual activity,PDPK1 (human),93.7%
same,residual activity,MELK (human),71.7%
same,residual activity,RPS6KA1 KD1 KD2 (human),89.7%
same,residual activity,MAPK14 (human),92.1%
same,residual activity,MAPK8 (human),99.6%
same,residual activity,PTK2 (human),88.1%
same,residual activity,PAK4 (human),93.9%
same,residual activity,WNK2 (human),116%
same,residual activity,NEK2 (human),92.4%
same,residual activity,GRK5 (human),107%
same,residual activity,YES1 (human),42.3%
same,residual activity,TAOK3 (human),76.7%
same,residual activity,MAPK10 (human),97.2%
same,residual activity,NLK (human),95.5%
same,residual activity,TGFBR1 (human),103%
same,residual activity,PRKCZ (human),109%
same,residual activity,LTK (human),93.9%
same,residual activity,TEK (human),92.1%
same,residual activity,RPS6KB2 (human),96.5%
same,residual activity,CSNK2A1 (human),86.8%
same,residual activity,SRPK2 (human),109%
same,residual activity,MST1R (human),103%
same,residual activity,CAMKK1 (human),91.7%
same,residual activity,SGK2 (human),111%
same,residual activity,HCK (human),71.8%
same,residual activity,TYRO3 (human),96.7%
same,residual activity,SRMS (human),92.9%
same,residual activity,PRKCB2 (human),105%
same,residual activity,CAMK4 (human),89.2%
same,residual activity,LRRK2 (human),96.5%
same,residual activity,MAP3K9 (human),10.5%
same,residual activity,NEK11 (human),95.4%
same,residual activity,FGFR2 (human),96.7%
same,residual activity,PKN1 (human),88.2%
same,residual activity,SIK2 (human),56.5%
NC(=O)c1ccc(N(C(N)=O)c2c(F)cccc2F)nc1-c1ccc(F)cc1F,residual activity,TSSK1B (human),83%
same,residual activity,DYRK2 (human),102%
same,residual activity,CSNK1G2 (human),99.6%
same,residual activity,MAPK12 (human),92.1%
same,residual activity,WEE1 (human),101%
same,residual activity,PDPK1 (human),87.4%
same,residual activity,MELK (human),87.1%
same,residual activity,RPS6KA1 KD1 KD2 (human),109%
same,residual activity,MAPK14 (human),5.23%
same,residual activity,CDK4 CCND1 (human),96.8%
same,residual activity,MAPK8 (human),100%
same,residual activity,PTK2 (human),98.9%
same,residual activity,PAK4 (human),92.6%
same,residual activity,WNK2 (human),96.4%
same,residual activity,NEK2 (human),109%
same,residual activity,GRK5 (human),103%
same,residual activity,YES1 (human),97.8%
same,residual activity,TAOK3 (human),95.7%
same,residual activity,MAPK10 (human),98.4%
same,residual activity,NLK (human),15.8%
same,residual activity,TGFBR1 (human),96.7%
same,residual activity,PRKCZ (human),89.9%
same,residual activity,LTK (human),95%
same,residual activity,TEK (human),96.7%
same,residual activity,RPS6KB2 (human),100%
same,residual activity,CSNK2A1 (human),111%
same,residual activity,MST1R (human),90.1%
same,residual activity,CAMKK1 (human),98.9%
same,residual activity,SGK2 (human),107%
same,residual activity,HCK (human),89.5%
same,residual activity,TYRO3 (human),101%
same,residual activity,SRMS (human),92.9%
same,residual activity,PRKCB2 (human),94.6%
same,residual activity,CAMK4 (human),91.9%
same,residual activity,LRRK2 (human),82%
same,residual activity,MAP3K9 (human),112%
same,residual activity,NEK11 (human),92.9%
same,residual activity,FGFR2 (human),99.5%
same,residual activity,PKN1 (human),101%
same,residual activity,SIK2 (human),95.1%
same,residual activity,CAMK1D (human),114%
